In patent publication US10369149B2, “4-(2-amino-tetrahydronaphthalenyl)pyrimidine derivative, preparation method therefor, and pharmaceutical composition for preventing or treating cancer, containing same as active ingredient” (KOREA RESEARCH INSTITUTE OF CHEMICAL TECHNOLOGY, priority 2015, dated 2019):
Like-named read-outs stand apart in the source and are kept apart here.

Assays:
[1] = system: ALK L1196M cells containing ALK enzyme; assay: ALK inhibitory activity in ALK L1196M cells, SRB staining of live cells; assay type: cell-based
Protocol: DMSO (dimethylsulfoxide) was added to the well that was not loaded with the compound by the same amount as the compound. Three days after the addition of the compound, DMEM was eliminated. 10% TCA (trichloroacetic acid) was added to fix the cells. The wells were washed with running water three times and the live cells were stained with SRB solution (1× sulphorodamine B). Then, OD was measured to calculate the population of the live cells. IC50 of the experimental compound used in the experiment above was calculated by using prism software (Version 5.01, Graphpad). […] Table 2 presents the ALK inhibitory activity of the compounds of the examples of the present invention in ALK L1196M containing ALK enzyme.

[2] = molecular target: ALK enzyme (Homo sapiens, UniProt Q9UM73); assay: Anaplastic lymphoma kinase (ALK) inhibitory activity, HTRF kinase assay; assay type: biochemical
Sequence of ALK enzyme (Q9UM73 19-1620): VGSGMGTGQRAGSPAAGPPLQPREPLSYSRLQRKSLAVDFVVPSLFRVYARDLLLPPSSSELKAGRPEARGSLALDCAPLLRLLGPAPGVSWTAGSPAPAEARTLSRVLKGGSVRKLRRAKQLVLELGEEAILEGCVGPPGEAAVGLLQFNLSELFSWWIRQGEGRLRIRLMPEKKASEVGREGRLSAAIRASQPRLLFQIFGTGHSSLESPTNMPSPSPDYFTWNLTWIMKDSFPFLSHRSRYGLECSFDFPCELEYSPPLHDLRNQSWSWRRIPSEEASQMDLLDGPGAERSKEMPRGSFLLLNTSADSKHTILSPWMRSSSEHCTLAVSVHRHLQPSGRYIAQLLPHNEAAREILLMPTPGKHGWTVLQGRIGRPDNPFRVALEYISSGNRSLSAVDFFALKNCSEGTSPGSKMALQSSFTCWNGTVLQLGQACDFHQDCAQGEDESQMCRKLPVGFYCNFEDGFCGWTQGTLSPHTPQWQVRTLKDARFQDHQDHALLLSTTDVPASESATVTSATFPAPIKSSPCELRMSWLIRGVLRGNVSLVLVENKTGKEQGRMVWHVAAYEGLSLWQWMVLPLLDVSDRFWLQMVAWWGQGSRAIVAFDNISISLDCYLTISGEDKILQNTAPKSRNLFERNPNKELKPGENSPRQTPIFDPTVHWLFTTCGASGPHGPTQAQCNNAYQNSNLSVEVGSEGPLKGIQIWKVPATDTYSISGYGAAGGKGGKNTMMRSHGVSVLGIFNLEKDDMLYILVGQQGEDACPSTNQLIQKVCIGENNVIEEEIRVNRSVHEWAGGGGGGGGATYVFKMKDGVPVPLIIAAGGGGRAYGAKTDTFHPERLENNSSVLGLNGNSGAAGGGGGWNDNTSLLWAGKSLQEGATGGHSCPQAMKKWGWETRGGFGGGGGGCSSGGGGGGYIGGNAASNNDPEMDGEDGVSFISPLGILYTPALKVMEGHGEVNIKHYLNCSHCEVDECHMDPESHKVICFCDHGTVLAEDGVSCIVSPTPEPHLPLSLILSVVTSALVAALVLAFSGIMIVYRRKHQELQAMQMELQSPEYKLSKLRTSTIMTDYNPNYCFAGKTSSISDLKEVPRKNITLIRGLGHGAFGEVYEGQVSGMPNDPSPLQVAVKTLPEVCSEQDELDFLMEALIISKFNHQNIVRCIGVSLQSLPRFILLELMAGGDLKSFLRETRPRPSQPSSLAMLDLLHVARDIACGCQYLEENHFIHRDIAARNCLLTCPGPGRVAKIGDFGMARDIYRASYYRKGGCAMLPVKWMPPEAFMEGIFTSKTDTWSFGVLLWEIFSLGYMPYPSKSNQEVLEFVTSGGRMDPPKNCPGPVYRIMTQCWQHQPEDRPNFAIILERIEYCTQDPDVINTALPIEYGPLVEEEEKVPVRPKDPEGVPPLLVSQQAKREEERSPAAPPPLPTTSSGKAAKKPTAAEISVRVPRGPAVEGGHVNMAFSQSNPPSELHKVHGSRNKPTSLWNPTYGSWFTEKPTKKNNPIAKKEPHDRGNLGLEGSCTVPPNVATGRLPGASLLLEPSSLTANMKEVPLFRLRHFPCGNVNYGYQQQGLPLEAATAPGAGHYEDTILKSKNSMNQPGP

[3] = molecular target: Ba/F3 EML4-ALK L1196M (Homo sapiens, UniProt Q9UM73, L1196M, cells depend on it); assay: ALK inhibitory activity in Ba/F3 EML4-ALK L1196M, SRB staining of live cells; conditions: read-out: Ba/F3 EML4-ALK L1196M, three days
Sequence of Ba/F3 EML4-ALK L1196M (Q9UM73 whole entry L1196M): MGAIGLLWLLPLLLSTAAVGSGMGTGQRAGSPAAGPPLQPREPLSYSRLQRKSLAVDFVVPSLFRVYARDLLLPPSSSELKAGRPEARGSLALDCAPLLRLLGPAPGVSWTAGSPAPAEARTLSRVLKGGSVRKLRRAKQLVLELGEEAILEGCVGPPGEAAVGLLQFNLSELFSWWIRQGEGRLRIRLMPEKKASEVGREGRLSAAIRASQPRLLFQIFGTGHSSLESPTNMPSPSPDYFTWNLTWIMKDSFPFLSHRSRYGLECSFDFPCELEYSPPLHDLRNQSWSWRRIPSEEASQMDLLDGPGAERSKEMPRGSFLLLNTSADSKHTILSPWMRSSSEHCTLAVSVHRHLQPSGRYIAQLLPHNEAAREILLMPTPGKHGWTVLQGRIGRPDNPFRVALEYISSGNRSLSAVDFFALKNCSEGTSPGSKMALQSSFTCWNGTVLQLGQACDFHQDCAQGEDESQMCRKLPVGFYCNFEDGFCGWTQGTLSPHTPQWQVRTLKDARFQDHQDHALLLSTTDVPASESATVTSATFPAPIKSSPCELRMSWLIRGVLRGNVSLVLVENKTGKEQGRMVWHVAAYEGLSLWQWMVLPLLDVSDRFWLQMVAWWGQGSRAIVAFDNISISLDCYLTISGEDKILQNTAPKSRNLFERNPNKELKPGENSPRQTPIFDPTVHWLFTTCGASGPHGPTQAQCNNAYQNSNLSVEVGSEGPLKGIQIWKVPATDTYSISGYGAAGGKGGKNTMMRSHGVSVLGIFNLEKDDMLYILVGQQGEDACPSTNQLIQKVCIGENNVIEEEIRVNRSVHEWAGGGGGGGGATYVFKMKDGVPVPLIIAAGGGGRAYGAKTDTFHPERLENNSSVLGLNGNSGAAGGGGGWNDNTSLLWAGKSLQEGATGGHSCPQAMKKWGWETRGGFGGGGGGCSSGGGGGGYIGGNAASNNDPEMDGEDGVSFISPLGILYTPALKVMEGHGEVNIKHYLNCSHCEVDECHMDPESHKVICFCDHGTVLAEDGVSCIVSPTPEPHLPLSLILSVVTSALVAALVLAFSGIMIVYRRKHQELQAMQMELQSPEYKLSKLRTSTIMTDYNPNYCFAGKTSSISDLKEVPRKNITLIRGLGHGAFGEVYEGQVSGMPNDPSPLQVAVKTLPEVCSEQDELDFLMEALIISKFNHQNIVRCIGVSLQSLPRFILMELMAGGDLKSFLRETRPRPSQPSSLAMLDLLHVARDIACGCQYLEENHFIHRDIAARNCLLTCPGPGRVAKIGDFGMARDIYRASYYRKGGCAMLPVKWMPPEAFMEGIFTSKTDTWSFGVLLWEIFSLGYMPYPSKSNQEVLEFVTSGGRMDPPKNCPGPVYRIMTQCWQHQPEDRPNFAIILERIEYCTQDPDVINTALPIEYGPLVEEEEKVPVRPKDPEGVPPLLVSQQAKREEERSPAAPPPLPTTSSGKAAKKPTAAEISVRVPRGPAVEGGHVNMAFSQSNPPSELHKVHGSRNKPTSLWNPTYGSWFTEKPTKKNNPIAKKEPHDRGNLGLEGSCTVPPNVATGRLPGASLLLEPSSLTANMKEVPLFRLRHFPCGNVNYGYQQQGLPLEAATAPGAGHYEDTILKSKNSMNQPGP
Protocol: Particularly, 4,000 ALK L1196M cells containing ALK enzyme were distributed in each well of a 96 well plate together with 100 μl of DMEM (Dulbecco's Modified Eagle's Medium). […] DMSO (dimethylsulfoxide) was added to the well that was not loaded with the compound by the same amount as the compound. Three days after the addition of the compound, DMEM was eliminated. 10% TCA (trichloroacetic acid) was added to fix the cells. The wells were washed with running water three times and the live cells were stained with SRB solution (1× sulphorodamine B). Then, OD was measured to calculate the population of the live cells.

[4] = system: human non-small cell lung cancer cell line H3122; assay: In vivo xenograft evaluation for H3122 induced lung cancer; design: species or system nude mice (BALB/c nu/nu, female); conditions: H3122 xenograft s.c. in nude mice, oral, q.d.×14, FIGS. 1 and 2
Text: The nude mice (BALB/c nu/nu, female) used in this experiment were purchased from Charles River Japan, Inc. and raised and tested under SPF (Specific Pathogen Free) control. The human non-small cell lung cancer cell line H3122 maintained by Korea Research Institute of Chemical Technology was used in this experiment. The female nude mice adapted to the laboratory were implanted with cancer. Particularly, H3122 cells grown to the appropriate size for passage were cut into 3×3×3 mm^3, which was transplanted (s.c.) under the right side of the nude mouse. […] For the control, 20% PEG 400+3% Tween 80 in DDW was orally administered. For the experimental group (7 mice/group), the compound was dissolved in the same solvent of the control, which was orally administered 14 times in total (q.d.×14). The size of the cancer was measured every 2˜3 days after the administration using a caliper and the diameters (long diameter (a), short diameter (b)) of the cancer were measured. The size of the cancer (volume, V) was calculated according to mathematical formula 1. Volume (mm^3)=a×b^2/2 [Mathematical Formula 1] FIG. 1 is a graph showing the results of observing the size of cancer in the control group (CONTROL), the LDK378-treated group, and the group treated with the compound of example 14 over the time. […]

[5] = system: H3122, the non-small cell lung cancer cell line; assay: ALK inhibitory activity in H3122, SRB staining of live cells; assay type: cell-based; conditions: Homo sapiens
Protocol: […] One day later, the compound of the present invention was added to each well at different concentrations of 10 μM, 2 μM, 0.4 μM, 0.08 μM, […], and 0.00032 μM. DMSO (dimethylsulfoxide) was added to the well that was not loaded with the compound by the same amount as the compound. Three days after the addition of the compound, DMEM was eliminated. 10% TCA (trichloroacetic acid) was added to fix the cells. The wells were washed with running water three times and the live cells were stained with SRB solution (1× sulphorodamine B). Then, OD was measured to calculate the population of the live cells. IC50 of the experimental compound used in the experiment above was calculated by using prism software (Version 5.01, Graphpad).
Table 2 presents the ALK inhibitory activity of the compounds of the examples of the present invention in H3122 containing ALK enzyme.

[6] = 72 h, ALK L1196M cells, three days, SRB, read-out: ALK L1196M
[7] = ALK L1196M cells, read-out: ALK inhibitory activity in ALK L1196M containing ALK enzyme at the concentration
[8] = read-out: anaplastic lymphoma kinase (ALK) inhibitory activity at the concentration
[9] = NCI-H3122, 72 h, three days, SRB, read-out: Non-small cell lung cancer cell line H3122
[10] = NCI-H3122, read-out: ALK inhibitory activity in H3122 containing ALK enzyme at the concentration range

Compound	IC50 ([2]; HTRF, read-out: ALK) [nM]	IC50 [2, 8] [nM]	GI50 [3] [nM]	IC50 [5, 9] [nM]	IC50 [5, 10] [nM]	IC50 [1, 6] [nM]	IC50 [1, 7] [nM]	effect of inhibiting cancer size [4]	IC50 ([1]; 72 h, read-out: ALK L1196M) [nM]
COc1cc2c(cc1Nc1ncc(Cl)c(Nc3ccccc3S(=O)(=O)C(C)C)n1)CC/C(=N\N1CCN(C)CC1)C2(C)C [Example 14, (E)-5-chloro-N4-(2-(isopropylsulfonyl)phenyl)-N2-(3-methoxy-5,5-dimethyl-6-(4-methylpiperazine-1-ylimino)-5,6,7,8-tetrahydronaphthalene-2-yl)pyrimidine-2,4-diamine]	< 10	≤ 10	10 to 100	10 to 100	10 to 100	< 10	≤ 10	excellent, similar to LDK378	–
COc1cc2c(cc1Nc1ncc(Cl)c(Nc3ccccc3S(=O)(=O)C(C)C)n1)CCC(N)C2(C)C (stereo not shown) [Example 22, N2-(6-amino-3-methoxy-5,5-dimethyl-5,6,7,8-tetrahydronaphthalene-2-yl)-5-chloro-N4-(2-(isopropylsulfonyl)phenyl)pyrimidine-2,4-diamine]	< 10	≤ 10	10 to 100	10 to 100	10 to 100	< 10	≤ 10	excellent, similar to LDK378	–
COc1cc2c(cc1Nc1ncc(Cl)c(Nc3ccccc3S(=O)(=O)C(C)C)n1)C(C)(C)/C(=N/N1CCN(C)CC1)CC2 [Example 19, (E)-5-chloro-N4-(2-(isopropylsulfonyl)phenyl)-N2-(3-methoxy-8,8-dimethyl-7-(4-methylpiperazine-1-ylimino)-5,6,7,8-tetrahydronaphthalene-2-yl)pyrimidine-2,4-diamine]	10 to 100	–	> 100	> 100	–	> 100	–	–	–
COc1cc2c(cc1Nc1ncc(Cl)c(Nc3ccccc3S(=O)(=O)C(C)C)n1)C(C)(C)/C(=N/N1CCOCC1)CC2 [Example 17, (E)-5-chloro-N4-(2-(isopropylsulfonyl)phenyl)-N2-(3-methoxy-8,8-dimethyl-7-(morpholinoimino)-5,6,7,8-tetrahydronaphthalene-2-yl)pyrimidine-2,4-diamine]	> 100	–	> 100	> 100	–	> 100	–	–	–
COc1cc2c(cc1Nc1ncc(Cl)c(Nc3ccccc3S(=O)(=O)C(C)C)n1)C(C)(C)C(N)CC2 (stereo not shown) [Example 23, N2-(7-amino-3-methoxy-8,8-dimethyl-5,6,7,8-tetrahydronaphthalene-2-yl)-5-chloro-N4-(2-(isopropylsulfonyl)phenyl)pyrimidine-2,4-diamine]	10 to 100	–	> 100	> 100	–	–	–	–	10 to 100
COc1cc2c(cc1Nc1ncc(Cl)c(Nc3ccccc3S(=O)(=O)C(C)C)n1)CCC(N1CCOCC1)C2 (stereo not shown) [Example 1, 5-chloro-N4-(2-(isopropylsulfonyl)phenyl)-N2-(3-methoxy-6-morpholino-5,6,7,8-tetrahydronaphthalene-2-yl)pyrimidine-2,4-diamine]	< 10	≤ 10	10 to 100	10 to 100	10 to 100	10 to 100	–	–	–
COc1cc2c(cc1Nc1ncc(Cl)c(Nc3ccccc3S(=O)(=O)C(C)C)n1)CC/C(=N\N1CCOCC1)C2(C)C [Example 15, (E)-5-chloro-N4-(2-(isopropylsulfonyl)phenyl)-N2-(3-methoxy-5,5-dimethyl-6-(morpholinoimino)-5,6,7,8-tetrahydronaphthalene-2-yl)pyrimidine-2,4-diamine]	10 to 100	–	> 100	10 to 100	10 to 100	10 to 100	–	–	–
COc1cc2c(cc1Nc1ncc(Cl)c(Nc3ccccc3S(=O)(=O)C(C)C)n1)CCC(NC(=O)CN(C)C)C2(C)C (stereo not shown) [Example 27, N-(6-(5-chloro-4-(2-(isopropylsulfonyl)phenylamino)pyrimidine-2-ylamino)-7-methoxy-1,1-dimethyl-1,2,3,4-tetrahydronaphthalene-2-yl)-2-(dimethylamino)acetamide]	< 10	≤ 10	10 to 100	10 to 100	10 to 100	< 10	≤ 10	–	–

Continued, in another order:

IC50 ([2]; HTRF, read-out: ALK) [nM]	IC50 [2, 8] [nM]	GI50 [3] [nM]	IC50 [5, 9] [nM]	IC50 [5, 10] [nM]	Compound	IC50 [1, 6] [nM]	IC50 [1, 7] [nM]	effect of inhibiting cancer size [4]	IC50 ([1]; 72 h, read-out: ALK L1196M) [nM]
> 100	–	> 100	> 100	–	COc1cc2c(cc1Nc1ncc(Cl)c(Nc3ccccc3S(=O)(=O)C(C)C)n1)C(C)(C)/C(=N/O)CC2 [Example 16, (E)-7-(5-chloro-4-(2-(isopropylsulfonyl)phenylamino)pyrimidine-2-ylamino)-6-methoxy-1,1-dimethyl-3,4-dihydronaphthalene-2(1H)-one oxime]	> 100	–	–	–
10 to 100	–	> 100	> 100	–	COc1cc2c(cc1Nc1ncc(Cl)c(Nc3ccccc3S(=O)(=O)C(C)C)n1)CC/C(=N\NC(N)=O)C2(C)C [Example 10, (E)-2-(6-(5-chloro-4-(2-(isopropylsulfonyl)phenylamino)pyrimidine-2-ylamino)-7-methoxy-1,1-dimethyl-3,4-dihydronaphthalene-2(1H)-yladene)hydrogencarboxamide]	10 to 100	–	–	–
10 to 100	–	> 100	> 100	–	COc1cc2c(cc1Nc1ncc(Cl)c(Nc3ccccc3S(=O)(=O)C(C)C)n1)C(C)(C)/C(=N/NC(C)=O)CC2 [Example 20, (E)-N-(7-(5-chloro-4-(2-(isopropylsulfonyl)phenylamino)pyrimidine-2-ylamino)-6-methoxy-1,1-dimethyl-3,4-dihydronaphthalene-2(1H)-yladene)acetohydrazide]	> 100	–	–	–
